Data on 1 compound can be found in patent US6242446A, “Method for treating attention deficit disorder” (Merck & Co., Inc., priority 2000, dated 2001).

Read-outs that look alike come from different tables or passages of the source.

In one experiment the test system is foot tapping in gerbils. The experiment in a line: Gerbil Foot-Tapping Assay (induced by central injection of an NK1 agonist). In kind it is in vivo, Mongolian gerbils. Conditions: Meriones unguiculatus, iv. The text has this: Gerbil Foot-Tapping Assay CNS penetrant NK-1 receptor antagonists for use in the resent invention can be identified by their ability to inhibit foot tapping in gerbils induced by anxiogenic agents (such as pentagastrin) or central infusion of NK-1 receptor agonists such as GR-73632, or caused by aversive stimulation such as foot shock or single housing, based on the method of Rupniak & Williams, Eur. J. Pharmacol., 1994, 265, 179. Male or female Mongolian gerbils (35-70 g) are anaesthetised by inhalation of an isoflurane/oxygen mixture to permit exposure of the jugular vein in order to permit administration of test compounds or vehicle in an injection volume of 5 ml/kg i.v. Alternatively, test compounds may be administered orally or by subcutaneous or intraperitoneal routes. The wound is closed and a second skin incision is made in the midline of the scalp to expose the skull. […] The duration and/or intensity of hind foot tapping is then recorded continuously for 5 minutes. Alternatively, the ability of test compounds to inhibit foot tapping evoked by aversive stimulation, such as foot shock or single housing, may be studied using a similar method of quantification.

Experiment [1] deals with distress vocalisations in guinea-pig pups. Briefly: Separation-Induced Vocalisation Assay. The experiment is classed as in vivo, guinea-pigs. The conditions noted are these: Cavia porcellus, po; 4 hr. pre-treatment; read-out: guinea-pig vocalisation (4 hr. pre-treatment) ID50. The text has this: Separation-Induced Vocalisation Assay Male and female guinea-pigs pups are housed in family groups with their mothers and littermates throughout the study. Experiments are commenced […] when the pups are 2 weeks old. Before entering an experiment, the pups are screened to ensure that a vigorous vocalisation response is reproducibly elicited following maternal separation. The pups are placed individually in an observation cage (55 cm×39 cm×19 cm) in a room physically isolated from the home cage for 15 minutes and the duration of vocalisation during this baseline period is recorded. Only animals which vocalise for longer than 5 minutes are employed for drug challenge studies (approximately 50% of available pups may fail to reach this criterion). On test days each pup receives an oral dose or a s.c. or i.p. injection of test compound or vehicle and is then immediately returned to the home cage with its mother and siblings for 30 minutes to 60 minutes (or for up to 4 hours following an oral dose, dependant upon the oral pharmacokinetics of the test compound) before social isolation for 15 minutes as described above. The duration of vocalisation on drug treatment days is expressed as a percentage of the pre-treatment baseline value for each animal. The same subjects are retested once weekly for up to 6 weeks. Between 6 and 8 animals receive each test compound at each dose tested. […]

The test system of experiment [2] is cisplatin-induced emesis in ferrets. Briefly: Ferret Emesis Assay (cisplatin-induced emesis). In kind it is in vivo. The conditions noted are these: Mustela putorius, po; cisplatin 10 mg/kg i.v.; 4 hours observation; read-out: ferret emesis ID90.
Description: Individually housed male ferrets (1.0-2.5 kg) are dosed orally by gavage with test compound. Ten minutes later they are fed with approximately 100 g of tinned cat food. At 60 minutes following oral dosing, cisplatin (10 mg/kg) is given i.v. via a jugular vein catheter inserted under a brief period of halothane anaesthesia. The catheter is then removed, the jugular vein ligated and the skin incision closed. The ferrets recover rapidly from the anaesthetic and are mobile within 10-20 minutes. The animals are observed continuously during recovery from the anaesthetic and for 4 hours following the cisplatin injection, after which time the animals are killed humanely. The numbers of retches and vomits occurring during the 4 hours after cisplatin administration are recorded by trained observers.

As for `C[C@@H](O[C@H]1OCCN(Cc2n[nH]c(=O)[nH]2)[C@H]1c1ccc(F)cc1)c1cc(C(F)(F)F)cc(C(F)(F)F)c1` [2-(R)-(1-(R)-(3,5-bis(trifluoromethyl)-phenyl)-ethoxy)-3-(S)-(4-fluorophenyl)-4-(3-(5-oxo-1H,4H-1,2,4-triazolo)methyl)-morpholine], the ED50 was determined as 0.36 mg/kg in the experiment with foot tapping in gerbils (5 min, i.v., 5 mins., read-out: gerbil foot-tapping (5 mins.) ID50); 0.33 mg/kg in the experiment with foot tapping in gerbils (24 hrs. prior to central NK1 agonist challenge, read-out: gerbil foot-tapping (24 hrs.) ID50); 0.73 mg/kg in experiment [1]. The ED90 in experiment [2] was under 3 mg/kg.
